Consider twelve molecules from ChEMBL document CHEMBL1125978 (Bioorg Med Chem Lett, 1991).

Assay [1] deals with T1, Muscarinic acetylcholine receptor (Rattus norvegicus) (UniProt P08482+P08483+P08485+P08911+P10980). Conditions: 0.1 uM.
In assay [2] the target is T1, Muscarinic acetylcholine receptor (Rattus norvegicus). As to conditions: 1.0 uM.
Assay [3] deals with Muscarinic acetylcholine receptor.
Description: Compound was evaluated for its ability to displace muscarinic agonist [3H]quinuclidinyl benzilate in rat cortical tissue (RCMD binding assay), at 0.1 uM concentration
Assay [4] has the same target. The source holds these as a separate data set.
Description: Compound was evaluated for its ability to displace muscarinic antagonist [3H]cis-methyldioxolane in rat cortical tissue (RQNB binding assay), at 1.0 uM concentration
The target of assay [5] is T2, Muscarinic acetylcholine receptor M1 (Rattus norvegicus, UniProt P08482).
T2 sequence (P08482 whole entry): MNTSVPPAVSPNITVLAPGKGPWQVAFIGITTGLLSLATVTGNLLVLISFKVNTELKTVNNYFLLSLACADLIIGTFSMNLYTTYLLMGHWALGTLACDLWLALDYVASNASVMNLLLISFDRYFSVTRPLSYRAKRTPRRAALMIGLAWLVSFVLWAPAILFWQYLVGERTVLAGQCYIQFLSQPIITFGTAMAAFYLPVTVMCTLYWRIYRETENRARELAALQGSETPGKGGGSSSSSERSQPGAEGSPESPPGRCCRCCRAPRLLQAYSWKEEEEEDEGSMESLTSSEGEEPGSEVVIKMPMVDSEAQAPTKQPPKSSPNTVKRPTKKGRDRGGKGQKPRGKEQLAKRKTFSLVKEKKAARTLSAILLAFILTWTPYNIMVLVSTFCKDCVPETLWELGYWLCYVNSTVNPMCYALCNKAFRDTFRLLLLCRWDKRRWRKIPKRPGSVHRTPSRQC
Description: Compound was evaluated for the displacement of the muscarinic QNB in a genetically transformed rat cell line (m1c2) transfected with cloned m1 receptors (m1-QNBm1c2)

Assay [6] concerns the target T3, Muscarinic acetylcholine receptor M2 (Rattus norvegicus, UniProt P10980).
T3 sequence (P10980 whole entry): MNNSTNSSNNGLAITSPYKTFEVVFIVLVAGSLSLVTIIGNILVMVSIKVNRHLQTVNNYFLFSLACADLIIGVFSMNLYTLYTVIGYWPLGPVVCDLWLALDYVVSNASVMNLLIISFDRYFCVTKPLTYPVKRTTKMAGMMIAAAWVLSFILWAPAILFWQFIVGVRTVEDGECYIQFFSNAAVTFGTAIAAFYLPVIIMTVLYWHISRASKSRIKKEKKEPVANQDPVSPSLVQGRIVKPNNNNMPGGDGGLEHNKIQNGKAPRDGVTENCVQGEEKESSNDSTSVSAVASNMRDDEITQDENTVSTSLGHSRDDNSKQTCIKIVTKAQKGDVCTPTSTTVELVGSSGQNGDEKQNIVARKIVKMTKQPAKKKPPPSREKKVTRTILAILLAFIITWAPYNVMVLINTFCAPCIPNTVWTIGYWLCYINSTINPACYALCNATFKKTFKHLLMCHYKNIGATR
The experiment in a line: biochemical.
Description: Compound was evaluated for the displacement of the muscarinic QNB in rat heart homogenate containing the pharmacologic M2 receptor (M2-QNB heart)

For assay [7], the system named is SK-N-SH.
Assay [8] has as its system SK-N-SH. The experiment in a line: Phosphoinositide (PI) turnover was assessed by the ability to stimulate [3H]- inositol phosphate accumulation in human SK-N-SH neuroblastoma cells relative to carbachol. In kind it is functional.

pIC50: −log10 of the molar value.

As usually defined, the inhibition is how much of the control response was suppressed. A low value points to a weak effect. As to `CCCN1C(=O)OC[C@@H]1Cc1cn(C)cn1`, the inhibition worked out at 2% in assay [1] and 10% in assay [2].

In the case of `CCN1C(=O)OC[C@@H]1Cc1c[nH]cn1`, the inhibition in assay [1] and in assay [2] was 4% each time.

Turning to `CCCN1C(=O)OC[C@@H]1Cc1c[nH]cn1`, the inhibition worked out at 2% in assay [1] and 4% in assay [2].

Broadly, the IC50 is the concentration needed to halve the response being measured. Higher therefore signals lower potency. Take `CCCN1C(=O)OC[C@@H]1Cc1cncn1C`: the IC50 in assay [3] stood at 73 µM; in assay [4], 3300 µM.

For `CCN1C(=O)OC[C@H]1Cc1cn(C)cn1`, the inhibition in assay [1] came to 0%; in assay [2], 1%.

Take `CCN1C(=O)OC[C@H]1Cc1c[nH]cn1`: the inhibition in assay [1] was 0%; in assay [2], 2%.

As for `CN1C(=O)OC[C@@H]1Cc1cncn1C`, the inhibition came out at 11% in assay [1] and 2% in assay [2].

For `CCN1C(=O)OC[C@H]1Cc1cncn1C`, the inhibition in assay [1] was determined as 6%; in assay [2], 0%.

For orientation: pIC50 means −log10 of the IC50, conventionally taken in molar units. Read a high pIC50 as a low IC50. For `O=C1CCCN1CC#CCN1CCCC1` [OXOTREMORINE], the pIC50 in assay [5] was 6.44; in assay [6] it was 6.07. In the assay on SK-N-SH [7], this molecule displayed a PI turnover of 33%.

In the case of `CN1C(=O)OC[C@@H]1Cc1c[nH]cn1`, the inhibition in assay [1] and in assay [2] was 0% throughout.

Consider `CCN1C(=O)OC[C@@H]1Cc1cncn1C`, for which the pIC50 in assay [5] was 4.90; in assay [6], 4.51. Further, the IC50 in assay [3] came to 0.043 µM; in assay [4] it was 8.9 µM. This molecule displayed a PI turnover with SK-N-SH [8] of 16%.

For the molecule `C[N+](C)(C)CCOC(N)=O.[Cl-]` [CARBACHOL], in the assay with SK-N-SH [7], the PI turnover was 100%.
